Source: patent US10576062B2, “Carbamoyloxymethyl triazole cyclohexyl acids as LPA antagonists” (Bristol-Myers Squibb Company, priority 2016, dated 2020)
pIC50: −log10 of the molar value.

target: T1, human LPA1 (Homo sapiens, UniProt Q92633); assay: LPA1 functional antagonist assay (LPA-induced calcium flux); assay type: cell-based; settings: CHO cells overexpressing human LPA1; inhibition of calcium flux induced by 10 nM LPA; read-out: hLPA1 IC50
T1 construct: expressed in transfected cells; host or cells: Chinese hamster ovary (CHO) cells
Experimental: The effectiveness of compounds of the present invention as LPA1 inhibitors can be determined in an LPA1 functional antagonist assay as follows: Chinese hamster ovary cells overexpressing human LPA1 were plated overnight (15,000 cells/well) in poly-D-lysine coated 384-well microplates (Greiner bio-one, Cat #781946) in DMEM/F12 medium (Gibco, Cat #11039). Following overnight culture, cells were loaded with calcium indicator dye (AAT Bioquest Inc, Cat #34601) for 30 minutes at 37° C. The cells were then equilibrated to room temperature for 30 minutes before the assay. Test compounds solubilized in DMSO were transferred to 384 well non-binding surface plates (Corning, Cat #3575) using the Labcyte Echo acoustic dispense and diluted with assay buffer [1×HBSS with calcium/magnesium (Gibco Cat #14025-092), 20 mM HEPES (Gibco Cat #15630-080) and 0.1% fatty acid free BSA (Sigma Cat #A9205)] to a final concentration of 0.5% DMSO. Diluted compounds were added to the cells by FDSS6000 (Hamamatsu) at final concentrations ranging from 0.08 nM to 5 μM. and were then incubated for 20 min at room temperature at which time LPA (Avanti Polar Lipids Cat #857130C) was added at final concentrations of 10 nM to stimulate the cells. […] IC50 values were determined by fitting data to a 4-parameter logistic equation (GraphPad Prism, San Diego Calif.).

T1 sequence (Q92633 whole entry): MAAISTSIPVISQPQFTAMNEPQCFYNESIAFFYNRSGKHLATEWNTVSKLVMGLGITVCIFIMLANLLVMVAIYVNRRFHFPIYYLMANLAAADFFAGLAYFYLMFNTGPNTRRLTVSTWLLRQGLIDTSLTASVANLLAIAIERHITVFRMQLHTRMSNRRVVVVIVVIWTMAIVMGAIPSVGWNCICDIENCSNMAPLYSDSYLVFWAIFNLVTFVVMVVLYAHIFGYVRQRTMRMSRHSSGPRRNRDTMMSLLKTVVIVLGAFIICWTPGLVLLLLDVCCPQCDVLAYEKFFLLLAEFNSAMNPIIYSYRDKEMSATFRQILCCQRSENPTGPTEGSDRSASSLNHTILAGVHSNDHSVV

Compound	pIC50
CC(OC(=O)N(C)CC1CCC1)c1c(-c2ccc(O[C@H]3CCC[C@H](C(=O)O)C3)cc2)nnn1C (mixture of isomers) [Example 12, (1S,3S)-3-(4-(5-(1-(((cyclobutylmethyl)(methyl)carbamoyl)oxy)ethyl)-1-methyl-1H-1,2,3-triazol-4-yl)phenoxy)cyclohexane-1-carboxylic Acid]	6.42

same assay, conditions: human LPA1; read-out: hLPA1 IC50

Compound	pIC50
Cc1nc(-c2nnn(C)c2COC(=O)N2CCCC(C)C2)ccc1O[C@H]1CCC[C@H](C(=O)O)C1 (mixture of isomers) [Example 161, (1S,3S)-3-((2-methyl-6-(1-methyl-5-(((3-methylpiperidine-1-carbonyl)oxy)methyl)-1H-1,2,3-triazol-4-yl)pyridin-3-yl)oxy)cyclohexane-1-carboxylic acid]	6.75
Cc1nc(-c2nnn(C)c2COC(=O)N2CCC(C(C)C)C2)ccc1O[C@H]1CCC[C@H](C(=O)O)C1 (mixture of isomers) [Example 163, (1S,3S)-3-((6-(5-(((3-isopropylpyrrolidine-1-carbonyl)oxy)methyl)-1-methyl-1H-1,2,3-triazol-4-yl)-2-methylpyridin-3-yl)oxy)cyclohexane-1-carboxylic acid]	6.98
Cc1nc(-c2nnn(C)c2COC(=O)N2CCC(C3CC3)C2)ccc1O[C@H]1CCC[C@H](C(=O)O)C1 (mixture of isomers) [Example 164, (1S,3S)-3-((6-(5-(((3-cyclopropylpyrrolidine-1-carbonyl)oxy)methyl)-1-methyl-1H-1,2,3-triazol-4-yl)-2-methylpyridin-3-yl)oxy)cyclohexane-1-carboxylic acid]	7.08
CCC1CCN(C(=O)OCc2c(-c3ccc(O[C@H]4CCC[C@H](C(=O)O)C4)c(C)n3)nnn2C)C1 (mixture of isomers) [Example 165, (1S,3S)-3-((6-(5-(((3-ethylpyrrolidine-1-carbonyl)oxy)methyl)-1-methyl-1H-1,2,3-triazol-4-yl)-2-methylpyridin-3-yl)oxy)cyclohexane-1-carboxylic acid]	6.99

same assay, conditions: read-out: hLPA1 IC50

Compound	pIC50
Cc1nc(-c2nnn(C)c2COC(=O)N(C)C(C)C2CCC2)ccc1O[C@H]1CCC[C@H](C(=O)O)C1 (mixture of isomers) [Example 20, (1S,3S)-3-((6-(5-((((1-cyclobutylethyl)(methyl)carbamoyl)oxy)methyl)-1-methyl-1H-1,2,3-triazol-4-yl)-2-methylpyridin-3-yl)oxy)cyclohexane-1-carboxylic acid]	7.55
CCCC(C)N(C)C(=O)OCc1c(-c2ccc(O[C@H]3CCC[C@H](C(=O)O)C3)cn2)nnn1C (mixture of isomers) [Example 24, (1S,3S)-3-((6-(1-methyl-5-(((methyl(pentan-2-yl)carbamoyl)oxy)methyl)-1H-1,2,3-triazol-4-yl)pyridin-3-yl)oxy)cyclohexane-1-carboxylic acid]	7.33
CCCC(C)N(C)C(=O)OCc1c(-c2ccc(O[C@H]3CCC[C@H](C(=O)O)C3)c(F)c2)nnn1C (mixture of isomers) [Example 28, (1S,3S)-3-(2-fluoro-4-(1-methyl-5-(((methyl(pentan-2-yl)carbamoyl)oxy)methyl)-1H-1,2,3-triazol-4-yl)phenoxy)cyclohexane-1-carboxylic acid]	7.60
CCCC(C)N(C)C(=O)OCc1c(-c2ccc(O[C@H]3CCC[C@H](C(=O)O)C3)c(C)n2)nnn1C (mixture of isomers) [Example 31, (1S,3S)-3-((2-methyl-6-(1-methyl-5-(((methyl(pentan-2-yl)carbamoyl)oxy)methyl)-1H-1,2,3-triazol-4-yl)pyridin-3-yl)oxy)cyclohexane-1-carboxylic acid]	7.44
CCCC(C)N(C)C(=O)OCc1c(-c2ccc(O[C@H]3CCC[C@H](C(=O)O)C3)c(C)c2)nnn1C (mixture of isomers) [Example 39, (1S,3S)-3-(2-methyl-4-(1-methyl-5-(((methyl(pentan-2-yl)carbamoyl)oxy)methyl)-1H-1,2,3-triazol-4-yl)phenoxy)cyclohexane-1-carboxylic acid]	7.64
CC(C1CC1)N(C)C(=O)OCc1c(-c2ccc(O[C@H]3CCC[C@H](C(=O)O)C3)c(F)c2)nnn1C (mixture of isomers) [Example 45, (1S,3S)-3-(4-(5-((((1-cyclopropylethyl)(methyl)carbamoyl)oxy)methyl)-1-methyl-1H-1,2,3-triazol-4-yl)-2-fluorophenoxy)cyclohexane-1-carboxylic acid]	7.70
CC(C1CCC1)N(C)C(=O)OCc1c(-c2ccc(O[C@H]3CCC[C@H](C(=O)O)C3)cc2)nnn1C (mixture of isomers) [Example 54, (1S,3S)-3-(4-(5-((((1-cyclobutylethyl)(methyl)carbamoyl)oxy)methyl)-1-methyl-1H-1,2,3-triazol-4-yl)phenoxy)cyclohexane-1-carboxylic acid]	7.72
CCCC(C)N(C)C(=O)OCc1c(-c2ccc(O[C@H]3CCC[C@H](C(=O)O)C3)cc2)nnn1C (mixture of isomers) [Example 57, trans-3-(4-(1-methyl-5-(((methyl(pentan-2-yl)carbamoyl)oxy)methyl)-1H-1,2,3-triazol-4-yl)phenoxy)cyclohexane-1-carboxylic acid]	6.85
CC(C1CC1)N(C)C(=O)OCc1c(-c2ccc(O[C@H]3CCC[C@H](C(=O)O)C3)cc2)nnn1C (mixture of isomers) [Example 65, trans-3-(4-(5-((((1-cyclopropylethyl)(methyl)carbamoyl)oxy)methyl)-1-methyl-1H-1,2,3-triazol-4-yl)phenoxy)cyclohexane-1-carboxylic acid]	7.10
CCC(C)N(C)C(=O)OCc1c(-c2ccc(O[C@H]3CCC[C@H](C(=O)O)C3)cc2)nnn1C (mixture of isomers) [Example 68, (trans)-3-(4-(5-(((sec-butyl(methyl)carbamoyl)oxy)methyl)-1-methyl-1H-1,2,3-triazol-4-yl)phenoxy)cyclohexane-1-carboxylic acid]	6.49
CCC(C1CCC1)N(C)C(=O)OCc1c(-c2ccc(O[C@H]3CCC[C@H](C(=O)O)C3)c(C)n2)nnn1C (mixture of isomers) [Example 99, (1S,3S)-3-((6-(5-((((1-cyclobutylpropyl)(methyl)carbamoyl)oxy)methyl)-1-methyl-1H-1,2,3-triazol-4-yl)-2-methylpyridin-3-yl)oxy)cyclohexane-1-carboxylic acid]	6.84
Cc1nc(-c2nnn(C)c2COC(=O)N2CCC(C)C2)ccc1O[C@H]1CCC[C@H](C(=O)O)C1 (mixture of isomers) [Example 147, (1S,3S)-3-((2-methyl-6-(1-methyl-5-(((3-methylpyrrolidine-1-carbonyl)oxy)methyl)-1H-1,2,3-triazol-4-yl)pyridin-3-yl)oxy)cyclohexane-1-carboxylic acid]	6.60
Cc1nc(-c2nnn(C)c2COC(=O)N2CCC(CC3CC3)C2)ccc1O[C@H]1CCC[C@H](C(=O)O)C1 (mixture of isomers) [Example 150, (1S,3S)-3-((6-(5-(((3-(cyclopropylmethyl)pyrrolidine-1-carbonyl)oxy)methyl)-1-methyl-1H-1,2,3-triazol-4-yl)-2-methylpyridin-3-yl)oxy)cyclohexane-1-carboxylic acid]	7.04
Cc1nc(-c2nnn(C)c2COC(=O)N2CCC(CC(C)C)C2)ccc1O[C@H]1CCC[C@H](C(=O)O)C1 (mixture of isomers) [Example 151, (1S,3S)-3-((6-(5-(((3-isobutylpyrrolidine-1-carbonyl)oxy)methyl)-1-methyl-1H-1,2,3-triazol-4-yl)-2-methylpyridin-3-yl)oxy)cyclohexane-1-carboxylic acid]	7.00
CCC1CCCN1C(=O)OCc1c(-c2ccc(O[C@H]3CCC[C@H](C(=O)O)C3)c(C)n2)nnn1C (mixture of isomers) [Example 152, (1S,3S)-3-((6-(5-(((2-ethylpyrrolidine-1-carbonyl)oxy)methyl)-1-methyl-1H-1,2,3-triazol-4-yl)-2-methylpyridin-3-yl)oxy)cyclohexane-1-carboxylic acid]	6.80
Cc1nc(-c2nnn(C)c2COC(=O)N2CCCC2CC(C)C)ccc1O[C@H]1CCC[C@H](C(=O)O)C1 (mixture of isomers) [Example 153, (1S,3S)-3-((6-(5-(((2-isobutylpyrrolidine-1-carbonyl)oxy)methyl)-1-methyl-1H-1,2,3-triazol-4-yl)-2-methylpyridin-3-yl)oxy)cyclohexane-1-carboxylic acid]	6.79
Cc1nc(-c2nnn(C)c2COC(=O)N2CCCC2C(F)(F)F)ccc1O[C@H]1CCC[C@H](C(=O)O)C1 (mixture of isomers) [Example 154, (1S,3S)-3-((2-methyl-6-(1-methyl-5-(((2-(trifluoromethyl)pyrrolidine-1-carbonyl)oxy)methyl)-1H-1,2,3-triazol-4-yl)pyridin-3-yl)oxy)cyclohexane-1-carboxylic acid]	6.49
Cc1nc(-c2nnn(C)c2COC(=O)N2CCC2C)ccc1O[C@H]1CCC[C@H](C(=O)O)C1 (mixture of isomers) [Example 157, (1S,3S)-3-((2-methyl-6-(1-methyl-5-(((2-methylazetidine-1-carbonyl)oxy)methyl)-1H-1,2,3-triazol-4-yl)pyridine-3-yl)oxy)cyclohexane-1-carboxylic acid]	6.28
